Measured values reported in ChEMBL document CHEMBL4342421, “Current scenario of tetrazole hybrids for antibacterial activity” (Eur J Med Chem, 2019).
≈ marks a conversion by molar mass, not a printed value.

Legend:
Assay type in all cases: functional
Bacillus subtilis [1] = test: Antimicrobial activity against Bacillus subtilis
Candida albicans [2] = test: Antifungal activity against Candida albicans
Staphylococcus aureus [3] = test: Antimicrobial activity against Staphylococcus aureus assessed as zone of inhibition at 250 ug/ml; conditions: read-out: IZ
Bacillus cereus = test: Antimicrobial activity against Bacillus cereus assessed as zone of inhibition at 250 ug/ml; conditions: read-out: IZ
Escherichia coli [4] = test: Antimicrobial activity against Escherichia coli assessed as zone of inhibition at 250 ug/ml; conditions: read-out: IZ
Pseudomonas aeruginosa [5] = test: Antimicrobial activity against Pseudomonas aeruginosa assessed as zone of inhibition at 250 ug/ml; conditions: read-out: IZ
Candida albicans [6] = test: Antifungal activity against Candida albicans assessed as zone of inhibition at 250 ug/ml; conditions: read-out: IZ
Aspergillus niger = test: Antifungal activity against Aspergillus niger assessed as zone of inhibition at 250 ug/ml; conditions: read-out: IZ
Escherichia coli [7] = test: Antimicrobial activity against Escherichia coli assessed as zone of inhibition at 10 ug/ml; conditions: read-out: IZ
Staphylococcus aureus [8] = test: Antimicrobial activity against Staphylococcus aureus assessed as zone of inhibition at 10 ug/ml; conditions: read-out: IZ
Candida albicans [9] = test: Antifungal activity against Candida albicans assessed as zone of inhibition at 10 ug/ml; conditions: read-out: IZ
Pseudomonas aeruginosa [10] = test: Antimicrobial activity against Pseudomonas aeruginosa assessed as zone of inhibition at 10 ug/ml; conditions: read-out: IZ
Bacillus subtilis [11] = test: Antimicrobial activity against Bacillus subtilis assessed as zone of inhibition at 10 ug/ml; conditions: read-out: IZ
Aspergillus fumigatus = test: Antifungal activity against Aspergillus fumigatus assessed as zone of inhibition at 10 ug/ml; conditions: read-out: IZ

`CC(=O)N1CCN(c2ccc(OCC3COC(Cn4ccnc4)(c4ccc(Cl)cc4Cl)O3)cc2)CC1` (centres undefined) [KETOCONAZOLE] was tested. Which MIC (Bacillus subtilis [1]) did it give?
Its MIC is 100 µg/mL (≈ 188 µM).

What about the MIC (Candida albicans [2]) of the same molecule?
The MIC was 100 µg/mL (≈ 188 µM).

What about the zone of inhibition at 250 µg/mL (Staphylococcus aureus [3]) of the same molecule?
Its zone of inhibition at 250 µg/mL is 23 to 26 mm.

What about the zone of inhibition at 250 µg/mL (Bacillus cereus) of the same molecule?
The zone of inhibition at 250 µg/mL was 23 to 26 mm.

And the zone of inhibition at 250 µg/mL (Escherichia coli [4])?
Its zone of inhibition at 250 µg/mL is 23 to 26 mm.

And the zone of inhibition at 250 µg/mL (Pseudomonas aeruginosa [5])?
The zone of inhibition at 250 µg/mL was 23 to 26 mm.

And the zone of inhibition at 250 µg/mL (Candida albicans [6])?
The zone of inhibition at 250 µg/mL was 23 to 26 mm.

What about the zone of inhibition at 250 µg/mL (Aspergillus niger) of the same molecule?
The zone of inhibition at 250 µg/mL was 23 to 26 mm.

What about the zone of inhibition at 10 µg/mL (Escherichia coli [7]) of the same molecule?
The zone of inhibition at 10 µg/mL was 23 to 24 mm.

What about the zone of inhibition at 10 µg/mL (Staphylococcus aureus [8]) of the same molecule?
The zone of inhibition at 10 µg/mL was 23 to 24 mm.

And the zone of inhibition at 10 µg/mL (Candida albicans [9])?
Its zone of inhibition at 10 µg/mL is 23 to 24 mm.

And the zone of inhibition at 10 µg/mL (Pseudomonas aeruginosa [10])?
The zone of inhibition at 10 µg/mL was 23 to 24 mm.

What about the zone of inhibition at 10 µg/mL (Bacillus subtilis [11]) of the same molecule?
The zone of inhibition at 10 µg/mL was 23 to 24 mm.

And the zone of inhibition at 10 µg/mL (Aspergillus fumigatus)?
Its zone of inhibition at 10 µg/mL is 23 to 24 mm.
